Results published in patent US20120214830A1, “BIOLOGICAL MARKERS PREDICTIVE OF ANTI-CANCER RESPONSE TO INSULIN-LIKE GROWTH FACTOR-1 RECEPTOR KINASE INHIBITORS IN HEPATOCELLULAR CARCINOMA” (OSI Pharmaceuticals, LLC, priority 2011, published 2012).

Key:
[1] = system: ErbB3 in JHH5, HepG2, and HUH1 HCC cells; assay: ErbB3 protein expression after TGFβ treatment; assay type: cell-based, human; details: data not shown
Procedure: Preparation of Protein Lysates and Western Blotting: Cells were rinsed with PBS and lysed in RIPA buffer (Sigma #R0278) containing protease and phosphatase inhibitor cocktails (Sigma #P2850, P8340, P5726). Cell lysates were cleared by centrifugation and subjected to western blotting. Antibodies included: E-cadherin (Santa Cruz #sc21791), ErbB3 (Santa Cruz #sc285), vimentin (BD Pharmingen #550513), Zebl (Santa Cruz #sc25388).
(§1) TGFβ treatment: Cells were grown in medium supplemented with 10 ng/ml TGFβ (EMD Biosciences #616450) for 10 days with replating every 3-4 days. The cells were then lysed for either RT-PCR or CELLTITER-GLO® proliferation assays (Promega, Madison, Wis.).

[2] = system: AFP expression in HUH-1, JHH-5 and HepG2 cells; assay: AFP expression by RT-PCR after TGFβ treatment; assay type: cell-based, human; details: 10 ng/ml TGFβ for 10 days, HUH-1, JHH-5, HepG2
Procedure: FIG. 11: TGFβ decreases AFP expression and cell sensitivity to OSI-906. HUH-1, JHH-5 and HepG2 cells were treated with TGFβ and cells were either treated with OSI-906 for proliferation assays (A) or lysed to measure AFP expression by RT-PCR (B).
Taqman Assays: Total RNA was isolated with RNeasy kit (Qiagen) and treated with RNase-free DNase. Reverese transcription was performed with SuperScript III First-Strand Synthesis system (Invitrogen, Carlsbad, Calif.). The Gene Expression Assays were obtained from Applied Biosystems, Foster City, Calif. Quantitation of relative gene expression was conducted as described by the manufacturer using 50 ng of template. In order to determine relative expression across cell lines, amplification of AFP gene was compared to amplification of the gene for GAPDH as an internal standard.
as §1

JHH-1 = assay: Cell Titer-Glo proliferation assay, 72 h; assay type: cell-based; details: Homo sapiens, JHH1; JHH-1 cells, erlotinib alone, determined beforehand; read-out: concentration to inhibit about 50% proliferation
Procedure: (§2) Two sensitive epithelial cell lines Hep3B (A), JHH-7 (B), one insensitive epithelial cell line JHH-1(C) or one insensitive mesenchymal-like cell line HLF (D) were treated serial dilution of OSI-906 in the presence of Erlotinib for 72 hours, and sensitivity to treatment was measured by proliferation assays.
(§3) Cell lines: Twenty-one HCC cell lines were purchased from either ATCC (HepG2, Hep3B, PLC/PRF/5, SK-Hepl, SNU-182, SNU-387, SNU-398, SNU-423, SNU-449, SNU-475) or Health Science Research Resources Bank (Japan) (HUH-1, HUH-6, HUH-7, HLE, HLF, JHH-1, JHH-2, JHH-4, JHH-5, JHH-6, JHH-7). All the cell lines were maintained in media as described by the vendors. For growth inhibition assays, cells were plated and allowed to proliferate for 24 hours. After 24 hours, cells had reached approximately 15% confluency, at which time serial dilutions of OSI-906 were added and the cells grown for a further 72 hours. Cell viability was assayed using the Cell Titer-Glo reagent (Promega Corp., Madison, Wis.).
(§4) Proliferation Assay. Proliferation was assayed using Cell Titer Glo assays (Promega) and was determined 72 hours following dosing with OSI-906. The basis of the assay is a luminescent quantitation of ATP present in a cell culture plate well. In essence, the greater the number of viable cells in the well, the greater the level of ATP present. The assay utilizes a substrate that binds ATP to produce a luminescent signal, which can be read on a luminometer. Unless otherwise noted, the manufacturer's instructions were followed exactly. Briefly, on Day 1, cells were plated in 120 μl of 10% serum-containing growth media at a density of 4000 cells/well in a white polystyrene 96 well assay plate. On day 2, cells were treated with 15 μl of 10× concentration of the IGF-1R inhibitor (e.g. OSI-906) or DMSO alone for a final well volume of 150 μl. After 72 h incubation with the inhibitor, the cells were assayed. Results were calculated as a fraction of the DMSO controlled cells.

Hep 3B = assay: Cell Titer-Glo proliferation assay, 72 h; assay type: cell-based; details: Homo sapiens; Hep3B cells, erlotinib alone, determined beforehand; read-out: concentration to inhibit about 50% proliferation
Procedure: as §2, §3, §4

Row | Molecule | expression of the epithelial biomarker protein ErbB3 after TGFβ treatment [1] | AFP expression after TGFβ treatment [2] | IC50 (JHH-1) [nM] | IC50 (Hep 3B) [nM]
1 | TGFβ | decreased | decreased |  | 
2 | C#Cc1cccc(Nc2ncnc3cc(OCCOC)c(OCCOC)cc23)c1 [Erlotinib, [6,7-bis(2-methoxyethoxy)-4-quinazolin-4-yl]-(3-ethynylphenyl) amine, reference compound] |  |  | 120 | 3300
